Assay results reported in PMC4767605 (Cancer chemotherapy and pharmacology, 2016).
Read-outs that look alike come from different tables or passages of the source.

[1] = Cohort 3 (n=3): ASP9853 37.5 mg + docetaxel 60 mg/m^2
[2] = Cohort 4 (n=7): ASP9853 50 mg + docetaxel 60 mg/m^2
[3] = Total ASP9853 combination with docetaxel (n=20)
[4] = lead-in phase, ASP9853 single agent
[5] = patients receiving ASP9853 in combination with docetaxel

O.O.O=C(/C=C/c1ccc(Cl)cc1)N[C@@H](Cc1ccccn1)C(=O)NCC(=O)N1CCC(Oc2cc(C(F)(F)F)ncn2)CC1 [ASP9853, (2E)-3-(4-chlorophenyl)-N-[(1S)-2-oxo-2-{[2-oxo-2-(4-{[6-(trifluoromethyl)-4-pyrimidinyl]oxy}-1-piperidinyl)ethyl]amino}-1-(2-pyridinylmethyl)ethyl]acrylamide dehydrate]
AE potentially related to ASP9853: Decreased appetite; Grade All [1]: 1 (33) n (%)
AE potentially related to ASP9853: Diarrhea; Grade 3/4 (only Grade 3) [1]: 0 n (%)
AE potentially related to ASP9853: Diarrhea; Grade All [1]: 1 (33) n (%)
AE potentially related to ASP9853: Dizziness; Grade 3/4 [1]: 0 n (%)
AE potentially related to ASP9853: Dizziness; Grade All [1]: 1 (33) n (%)
AE potentially related to ASP9853: Fatigue; Grade 3/4 (only Grade 3) [1]: 0 n (%)
AE potentially related to ASP9853: Fatigue; Grade All [1]: 2 (67) n (%)
AE potentially related to ASP9853: Febrile neutropenia; Grade 3/4 [1]: 0 n (%)
AE potentially related to ASP9853: Febrile neutropenia; Grade All [1]: 0 n (%)
AE potentially related to ASP9853: Nausea; Grade 3/4 [1]: 0 n (%)
AE potentially related to ASP9853: Nausea; Grade All [1]: 1 (33) n (%)
AE potentially related to ASP9853: Neutropenia; Grade 3/4 [1]: 1 (33) n (%)
AE potentially related to ASP9853: Neutropenia; Grade All [1]: 1 (33) n (%)
AE potentially related to ASP9853: Neutrophil count decreased; Grade 3/4 [1]: 1 (33) n (%)
AE potentially related to ASP9853: Neutrophil count decreased; Grade All [1]: 1 (33) n (%)
AE potentially related to ASP9853: Overall; Grade 3/4 [1]: 2 (67) n (%)
AE potentially related to ASP9853: Overall; Grade All [1]: 3 (100) n (%)
AE potentially related to ASP9853: Vomiting; Grade 3/4 [1]: 0 n (%)
AE potentially related to ASP9853: Vomiting; Grade All [1]: 0 n (%)
AE potentially related to ASP9853: White blood cell count decreased; Grade All [1]: 2 (67) n (%)
DLTs (Cohort 3: ASP9853 37.5 mg + docetaxel 60 mg/m^2, three patients): no DLTs were observed
SAE considered related to ASP9853: leukopenia (Cohort 4): 1 n
SAE considered related to ASP9853: neutropenia (Cohort 4): 1 n
AE potentially related to ASP9853: Anemia; Grade 3/4 [2]: 0 n (%)
AE potentially related to ASP9853: Anemia; Grade All [2]: 1 (14) n (%)
AE potentially related to ASP9853: Asthenia; Grade 3/4 [2]: 0 n (%)
AE potentially related to ASP9853: Asthenia; Grade All [2]: 0 n (%)
AE potentially related to ASP9853: Constipation; Grade 3/4 [2]: 0 n (%)
AE potentially related to ASP9853: Constipation; Grade All [2]: 1 (14) n (%)
AE potentially related to ASP9853: Decreased appetite; Grade 3/4 [2]: 0 n (%)
AE potentially related to ASP9853: Decreased appetite; Grade All [2]: 0 n (%)
AE potentially related to ASP9853: Diarrhea; Grade 3/4 (only Grade 3) [2]: 0 n (%)
AE potentially related to ASP9853: Diarrhea; Grade All [2]: 0 n (%)
AE potentially related to ASP9853: Dizziness; Grade 3/4 [2]: 0 n (%)
AE potentially related to ASP9853: Dizziness; Grade All [2]: 2 (29) n (%)
AE potentially related to ASP9853: Fatigue; Grade 3/4 (only Grade 3) [2]: 1 (14) n (%)
AE potentially related to ASP9853: Fatigue; Grade All [2]: 2 (29) n (%)
AE potentially related to ASP9853: Febrile neutropenia; Grade 3/4 [2]: 0 n (%)
AE potentially related to ASP9853: Febrile neutropenia; Grade All [2]: 0 n (%)
AE potentially related to ASP9853: Nausea; Grade 3/4 [2]: 0 n (%)
AE potentially related to ASP9853: Nausea; Grade All [2]: 1 (14) n (%)
AE potentially related to ASP9853: Neutropenia; Grade 3/4 [2]: 2 (29) n (%)
AE potentially related to ASP9853: Neutropenia; Grade All [2]: 2 (29) n (%)
AE potentially related to ASP9853: Neutrophil count decreased; Grade 3/4 [2]: 1 (14) n (%)
AE potentially related to ASP9853: Neutrophil count decreased; Grade All [2]: 1 (14) n (%)
AE potentially related to ASP9853: Overall; Grade 3/4 [2]: 4 (57) n (%)
AE potentially related to ASP9853: Overall; Grade All [2]: 7 (100) n (%)
AE potentially related to ASP9853: Vomiting; Grade 3/4 [2]: 0 n (%)
AE potentially related to ASP9853: Vomiting; Grade All [2]: 1 (14) n (%)
AE potentially related to ASP9853: White blood cell count decreased; Grade All [2]: 2 (29) n (%)
AE potentially related to ASP9853: Anemia; Grade 3/4 [3]: 0 n (%)
AE potentially related to ASP9853: Anemia; Grade All [3]: 3 (15) n (%)
AE potentially related to ASP9853: Asthenia; Grade 3/4 [3]: 0 n (%)
AE potentially related to ASP9853: Asthenia; Grade All [3]: 2 (10) n (%)
AE potentially related to ASP9853: Constipation; Grade 3/4 [3]: 0 n (%)
AE potentially related to ASP9853: Constipation; Grade All [3]: 3 (15) n (%)
AE potentially related to ASP9853: Decreased appetite; Grade 3/4 [3]: 0 n (%)
AE potentially related to ASP9853: Decreased appetite; Grade All [3]: 2 (10) n (%)
AE potentially related to ASP9853: Diarrhea; Grade 3/4 (only Grade 3) [3]: 1 (5) n (%)
AE potentially related to ASP9853: Diarrhea; Grade All [3]: 4 (20) n (%)
AE potentially related to ASP9853: Dizziness; Grade 3/4 [3]: 0 n (%)
AE potentially related to ASP9853: Dizziness; Grade All [3]: 3 (15) n (%)
AE potentially related to ASP9853: Fatigue; Grade 3/4 (only Grade 3) [3]: 2 (10) n (%)
AE potentially related to ASP9853: Fatigue; Grade All [3]: 9 (45) n (%)
AE potentially related to ASP9853: Febrile neutropenia; Grade 3/4 [3]: 2 (10) n (%)
AE potentially related to ASP9853: Febrile neutropenia; Grade All [3]: 2 (10) n (%)
AE potentially related to ASP9853: Nausea; Grade 3/4 [3]: 0 n (%)
AE potentially related to ASP9853: Nausea; Grade All [3]: 4 (20) n (%)
AE potentially related to ASP9853: Neutropenia; Grade 3/4 [3]: 4 (20) n (%)
AE potentially related to ASP9853: Neutropenia; Grade All [3]: 4 (20) n (%)
AE potentially related to ASP9853: Neutrophil count decreased; Grade 3/4 [3]: 2 (10) n (%)
AE potentially related to ASP9853: Neutrophil count decreased; Grade All [3]: 2 (10) n (%)
AE potentially related to ASP9853: Overall; Grade 3/4 [3]: 11 (55) n (%)
AE potentially related to ASP9853: Overall; Grade All [3]: 18 (90) n (%)
AE potentially related to ASP9853: Vomiting; Grade 3/4 [3]: 0 n (%)
AE potentially related to ASP9853: Vomiting; Grade All [3]: 4 (20) n (%)
AE potentially related to ASP9853: White blood cell count decreased; Grade All [3]: 5 (25) n (%)
Patients with AEs considered to be potential DLTs (all cohorts, ASP9853 + docetaxel): Five
Patients who met the protocol-defined DLT criteria (in Cohorts 1 and 2): three
Patients with post-baseline maximum Grade 1 neutropenia (laboratory evaluation): three
Patients with post-baseline maximum Grade 4 neutropenia (laboratory evaluation): eight
AE possibly related to ASP9853: QT prolonged electrocardiogram [4]: 1 n
AE possibly related to ASP9853: arthralgia [4]: 1 n
AE possibly related to ASP9853: asthenia [4]: 1 n
AE possibly related to ASP9853: gastrooesophageal reflux disease [4]: 1 n
AE possibly related to ASP9853: leukopenia [4]: 1 n
AE possibly related to ASP9853: nausea [4]: 1 n
AE possibly related to ASP9853: pollakiuria [4]: 1 n
AE possibly related to ASP9853: vomiting [4]: 1 n
AE regardless of relationship to study drug: alopecia [5]: 30.0%
AE regardless of relationship to study drug: decreased appetite [5]: 30.0%
AE regardless of relationship to study drug: decreased white blood cells [5]: 35.0%
AE regardless of relationship to study drug: fatigue [5]: 45.0%
AE regardless of relationship to study drug: nausea [5]: 35.0%
AE regardless of relationship to study drug: neutropenia [5]: 50.0%
